Results from ChEMBL document CHEMBL4007389, “Discovery and evaluation of inhibitors to the immunosuppressive enzyme indoleamine 2,3-dioxygenase 1 (IDO1): Probing the active site-inhibitor interactions” (Eur J Med Chem, 2017).

Legend:
[1] = biological target: T1, Indoleamine 2,3-dioxygenase 1 (Homo sapiens, UniProt P14902); experiment: Inhibition of recombinant human IDO1 expressed in bacterial expression system using L-Tryptophan as substrate after 25 mins in absence of GSH and presence of tween20 by fluorescence assay
Target sequence in this assay (P14902 whole entry): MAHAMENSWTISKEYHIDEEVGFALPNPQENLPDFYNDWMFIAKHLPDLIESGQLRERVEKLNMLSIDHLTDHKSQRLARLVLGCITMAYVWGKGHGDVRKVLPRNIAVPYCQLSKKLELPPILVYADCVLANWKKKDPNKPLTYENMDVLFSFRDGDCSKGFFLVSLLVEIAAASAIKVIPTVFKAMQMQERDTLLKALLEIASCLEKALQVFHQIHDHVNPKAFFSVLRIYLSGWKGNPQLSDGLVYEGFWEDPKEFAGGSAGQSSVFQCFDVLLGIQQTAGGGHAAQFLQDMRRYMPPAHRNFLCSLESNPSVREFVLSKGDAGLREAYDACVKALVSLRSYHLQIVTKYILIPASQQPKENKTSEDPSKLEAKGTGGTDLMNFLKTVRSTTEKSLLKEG

[2] = organism: Homo sapiens; experiment: Selectivity ratio of IC50 for recombinant human IDO1 S167A mutant expressed in Escherichia coli SG13009(pREP4) to IC50 for recombinant human IDO1 expressed in bacterial expression system
[3] = tested on: Indoleamine 2,3-dioxygenase 1 (Homo sapiens), P14902 [S167A]; experiment: Inhibition of recombinant human IDO1 S167A mutant expressed in Escherichia coli SG13009(pREP4) at 400 uM using L-Tryptophan as substrate after 25 mins by fluorescence assay relative to control
Chain of Indoleamine 2,3-dioxygenase 1 (Homo sapiens), P14902 [S167A] (P14902 whole entry S167A): as the sequence (P14902 whole entry) above, with S167A counted along it

[4] = Cytotoxicity against mouse LLTC cells assessed as reduction in cell viability after 24 hrs by MTT assay; assay type: cell-based; conditions: read-out: LC50
[5] = tested on: Indoleamine 2,3-dioxygenase 1 (Homo sapiens), P14902 [S167A]; experiment: Inhibition of recombinant human IDO1 S167A mutant expressed in Escherichia coli SG13009(pREP4) at 20 uM using L-Tryptophan as substrate after 25 mins by fluorescence assay relative to control
[6] = biological target: Indoleamine 2,3-dioxygenase 1 (Homo sapiens, UniProt P14902, S167A)
Chain of Indoleamine 2,3-dioxygenase 1 (Homo sapiens, UniProt P14902, S167A) (P14902 whole entry S167A): as the sequence (P14902 whole entry) above, with S167A counted along it

[7] = biological target: T1, Indoleamine 2,3-dioxygenase 1; experiment: Inhibition of recombinant human IDO1 expressed in bacterial expression system at 150 uM using L-Tryptophan as substrate after 25 mins by fluorescence assay relative to control
Target sequence in this assay (P14902 whole entry, looked up): as the sequence (P14902 whole entry) above

[8] = tested on: Indoleamine 2,3-dioxygenase 1 (Homo sapiens), P14902 [C129A]; experiment: Inhibition of recombinant human IDO1 C129A mutant expressed in Escherichia coli SG13009(pREP4) at 20 uM using L-Tryptophan as substrate after 25 mins by fluorescence assay relative to control
Chain of Indoleamine 2,3-dioxygenase 1 (Homo sapiens), P14902 [C129A] (P14902 whole entry C129A): as the sequence (P14902 whole entry) above, with C129A counted along it

[9] = biological target: Indoleamine 2,3-dioxygenase 1 (Homo sapiens, UniProt P14902, C129A); experiment: Inhibition of recombinant human IDO1 C129A mutant expressed in Escherichia coli SG13009(pREP4) using L-Tryptophan as substrate after 25 mins by fluorescence assay
Chain of Indoleamine 2,3-dioxygenase 1 (Homo sapiens, UniProt P14902, C129A) (P14902 whole entry C129A): as the sequence (P14902 whole entry) above, with C129A counted along it

[10] = biological target: T1, Indoleamine 2,3-dioxygenase 1; experiment: Inhibition of full length recombinant human His-tagged IDO1 expressed in mouse LLTC cells using L-tryptophan as substrate after 24 hrs; assay type: cell-based
Target sequence in this assay (P14902 whole entry): as the sequence (P14902 whole entry) above

[11] = biological target: T1, Indoleamine 2,3-dioxygenase 1; experiment: Inhibition of recombinant human IDO1 expressed in bacterial expression system at 350 uM using L-Tryptophan as substrate after 25 mins by fluorescence assay relative to control
Target sequence in this assay (P14902 whole entry, looked up): as the sequence (P14902 whole entry) above

[12] = biological target: T1, Indoleamine 2,3-dioxygenase 1; experiment: Inhibition of recombinant human IDO1 expressed in bacterial expression system at 400 uM using L-Tryptophan as substrate after 25 mins by fluorescence assay relative to control
Target sequence in this assay (P14902 whole entry, looked up): as the sequence (P14902 whole entry) above

[13] = biological target: T1, Indoleamine 2,3-dioxygenase 1; experiment: Inhibition of recombinant human IDO1 expressed in bacterial expression system using L-Tryptophan as substrate after 25 mins in absence of GSH and tween20 by fluorescence assay
Target sequence in this assay (P14902 whole entry): as above

[14] = biological target: T1, Indoleamine 2,3-dioxygenase 1; experiment: Inhibition of recombinant human IDO1 expressed in bacterial expression system using L-Tryptophan as substrate after 25 mins in presence of GSH and tween20 by fluorescence assay
Target sequence in this assay (P14902 whole entry): as above

[15] = biological target: T1, Indoleamine 2,3-dioxygenase 1; conditions: 30 uM
Target sequence in this assay (P14902 whole entry, looked up): as the sequence (P14902 whole entry) above

[16] = biological target: T1, Indoleamine 2,3-dioxygenase 1; conditions: 50 uM
Target sequence in this assay (P14902 whole entry, looked up): as the sequence (P14902 whole entry) above

[17] = biological target: T1, Indoleamine 2,3-dioxygenase 1; experiment: Inhibition of recombinant human IDO1 expressed in bacterial expression system at 100 uM using L-Tryptophan as substrate after 25 mins by fluorescence assay relative to control
Target sequence in this assay (P14902 whole entry, looked up): as the sequence (P14902 whole entry) above

[18] = biological target: T1, Indoleamine 2,3-dioxygenase 1; experiment: Inhibition of recombinant human IDO1 expressed in bacterial expression system at 250 uM using L-Tryptophan as substrate after 25 mins by fluorescence assay relative to control
[19] = biological target: T1, Indoleamine 2,3-dioxygenase 1; experiment: Irreversible inhibition of recombinant human IDO1 expressed in bacterial expression system at 3 uM using L-Tryptophan as substrate after preincubated for 90 mins followed by 100 fold compound dilution measured after 15 mins by fluorescence assay relative to control
[20] = biological target: T1, Indoleamine 2,3-dioxygenase 1; experiment: Inhibition of recombinant human IDO1 expressed in bacterial expression system at 50 uM using L-Tryptophan as substrate after 25 mins by fluorescence assay relative to control
[21] = biological target: T1, Indoleamine 2,3-dioxygenase 1; experiment: Inhibition of recombinant human IDO1 expressed in bacterial expression system at 200 uM using L-Tryptophan as substrate after 25 mins by fluorescence assay relative to control
[22] = biological target: T1, Indoleamine 2,3-dioxygenase 1; conditions: 80 uM

Row | Compound | IC50 [1] [µM] | Ratio IC50 [2] | IC50 [6] [µM] | also measured
1 | Cc1cc(I)ccc1Nc1cc2no[n+]([O-])c2cc1C(=O)O | 23 | > 44 | – | inhibition [3]: 2%
2 | c1ccc(-c2c[nH]cn2)cc1 | – | – | – | CC50 at 24 h [4]: > 1150 µM
3 | O=[N+]([O-])c1ccc(Nc2ccc(Br)cc2)c2nonc12 | 68 | – | – | –
4 | CC1=CC(C)(C)NC(=S)N1c1cccc2cc(S(N)(=O)=O)ccc12 | 27.6 | 36.2 | 1000 | inhibition [5]: -8%
5 | COc1ccc(Nc2ccc([N+](=O)[O-])c3nonc23)cc1 | 96 | – | – | –
6 | CCC1=C(c2ccccc2)C(=O)c2ccccc21 | – | – | – | inhibition [7]: 20%
7 | c1ccc2c(c1)Nc1ccncc1S2 | 422 | – | – | inhibition [8]: 38.8%; IC50 [9]: 31.6 µM
8 | O=C(O)c1cc(F)c2nonc2c1Nc1ccc(I)cc1F | 43 | 1 | 47 | IC50 [10]: 168 µM; CC50 at 24 h [4]: > 233 µM
9 | COc1ccc(C2=Nc3ccccc3C2=O)cc1 | – | – | – | inhibition [11]: 5%
10 | Oc1ccccc1-c1nc2ccccc2[nH]1 | – | – | – | inhibition [12]: 1%
11 | COc1ccc(C2=[N+]([O-])c3ccccc3C2=O)cc1 | 1.6 | 39 | 63 | IC50 [10]: 2.3 µM; CC50 at 24 h [4]: 42 µM
12 | Cc1ccccc1-c1nc2c3ccccc3c3ccccc3c2[nH]1 | 512 | 1 | 464 | –
13 | COc1ccc2c(c1)c1ccc3c(c1n2C)C(=O)C=CC3=O | 25.5 | 39.3 | 1000 | inhibition [5]: -5%
14 | Clc1ccc(SCNc2ccccc2Cl)cc1 | 4.5 | 0.2 | 0.87 | IC50 [13]: 5.5 µM; IC50 [14]: 1.5 µM; IC50 [10]: 6.3 µM; CC50 at 24 h [4]: 40 µM; inhibition [15]: < 25%
15 | Sc1ccc(Cl)cc1 | 7.9 | 0.5 | 3.5 | IC50 [10]: 9.2 µM; CC50 at 24 h [4]: 35 µM
16 | Cc1ccc([S+]([O-])c2ccc([N+](=O)[O-])c3nonc23)cc1 (stereo not drawn) | 12 | 0.055 | 0.66 | IC50 [13]: 14 µM; IC50 [14]: 2.1 µM; IC50 [10]: 15 µM; CC50 at 24 h [4]: 29 µM; inhibition [16]: > 75%
17 | CC(=O)OCCn1c2nc(=O)[nH]c(=O)c-2nc2cc(C)c(C)cc21 | 31.3 | 32 | 1000 | inhibition [5]: -8%
18 | NC1=C(c2ccccc2)C(=O)c2ccccc21 | – | – | – | inhibition [17]: 14%
19 | O=C1c2ccccc2C(=O)C1c1ccccc1 | – | – | – | inhibition [12]: 20%

Row | Compound | IC50 [1] [µM] | Ratio IC50 [2] | IC50 [6] [µM] | also measured
20 | O=[N+]([O-])c1cccc2nsnc12 | 320 | 2 | 614 | –
21 | c1ccc(NCCSc2nc3ccccc3s2)cc1 | 115 | – | – | inhibition [8]: 70.8%; IC50 [9]: 8.2 µM
22 | c1ccc(-c2nc3c4ccccc4c4ccccc4c3[nH]2)cc1 | – | – | – | inhibition [18]: 8%
23 | Cc1ccccc1-c1nc2ccccc2[nH]1 | – | – | – | inhibition [12]: -2%
24 | Cc1cc(I)ccc1Nc1cc2nonc2cc1C(=O)O | 41 | 1 | 42 | –
25 | O=C1C(c2ccccc2)=[N+]([O-])c2ccccc21 | 0.87 | 3 | 3 | IC50 [10]: 2.3 µM; CC50 at 24 h [4]: 14 µM
26 | O=[N+]([O-])c1ccc(NCSc2ccc(Cl)cc2)cc1 | 0.8 | 0.125 | 0.1 | CC50 at 24 h [4]: 40 µM
27 | CCn1c2ccccc2nc2cc3c(cc21)c(Cl)c(=O)c1ccccc13 | 42.5 | 23.1 | 980 | inhibition [5]: 2%
28 | Cc1ccccc1C1=[N+]([O-])c2ccccc2C1=O | 0.46 | 5 | 2.2 | inhibition [19]: > 75%; IC50 [10]: 3.9 µM; CC50 at 24 h [4]: 12 µM
29 | COc1c(O)ccc2c1CN1CCc3cc4c(cc3C1C2)OCO4 (stereo not drawn) | 35.6 | 28.1 | 1000 | –
30 | CC1=NC(SCc2ccc(Cl)cc2Cl)=NC(=O)C1 | – | – | – | inhibition [12]: -8%; IC50 [10]: 217 µM; CC50 at 24 h [4]: > 125 µM
31 | COC12C(COC(N)=O)C3=C(C(=O)C(C)=C(N)C3=O)N1CC1C2N1C (stereo not drawn) | 15.7 | 63.6 | 1000 | inhibition [5]: -4%
32 | O=[N+]([O-])c1ccc(Sc2cccc[n+]2[O-])c2nonc12 | 24 to 60 | 5 to 16.7 | 108 to 1000 | inhibition [5]: -1%
33 | COc1cc2c(cc1OC)[N+]([O-])=C(c1ccccc1)C2=O | 4.1 to 60 | 16.7 to 50 | 206 to 1000 | inhibition [5]: 0%; IC50 [13]: 9.3 µM; IC50 [14]: 1.5 µM; IC50 [10]: 4.3 µM; CC50 at 24 h [4]: 25 µM
34 | Fc1ccccc1-c1nc2c3ccccc3c3ccccc3c2[nH]1 | 231 | 0.5 | 108 | –
35 | O/N=C1\c2ccccc2NC1c1ccccc1 (stereo not drawn) | 510 | 1 | 366 | –
36 | COc1ccc(C2=C(N)c3ccccc3C2=O)cc1 | – | – | – | inhibition [20]: 13%
37 | Cn1c2ccccc2c2ccc3c(c21)C(=O)C=CC3=O | 42.5 | 23.5 | 1000 | inhibition [5]: -2%
38 | CC(=O)OC1=C(c2ccccc2)C(=O)c2ccccc21 | 266 | – | – | –

Row | Compound | IC50 [1] [µM] | Ratio IC50 [2] | IC50 [6] [µM] | also measured
39 | Nc1nonc1C(=NO)Nc1ccc(F)c(Cl)c1 | – | – | – | CC50 at 24 h [4]: > 5 µM
40 | COc1c(NC(C)=O)c2ccccc2c2ccccc12 | 35.6 | 28.1 | 1000 | inhibition [5]: -9%
41 | Oc1cccc(-c2nc3c4ccccc4c4ccccc4c3[nH]2)c1 | 112 | 2 | 173 | –
42 | COc1ccc(-c2cc3ccccc3[nH]2)cc1 | – | – | – | inhibition [21]: 16%
43 | CC(=O)NC1=C(c2ccccc2)C(=O)c2ccccc21 | – | – | – | inhibition [17]: 14%
44 | Oc1ccccc1-c1nc2c3ccccc3c3ccccc3c2[nH]1 | 3.3 to 9 | 8 to 109 | 26 to 980 | inhibition [5]: 2%; IC50 [13]: 7.8 µM; IC50 [14]: 4.9 µM; IC50 [10]: 52 µM; CC50 at 24 h [4]: > 100 µM; inhibition [22]: < 25%
45 | O=C1c2ccccc2CC1c1ccccc1 (stereo not drawn) | – | – | – | inhibition [21]: 21%
46 | O=[N+]([O-])c1ccccc1NCSc1ccc(Cl)cc1 | 63 | – | – | IC50 [10]: 6.3 µM; CC50 at 24 h [4]: 52 µM
47 | Oc1ccc(-c2nc3c4ccccc4c4ccccc4c3[nH]2)cc1 | 522 | > 2 | – | inhibition [3]: 14%
48 | CC[C@@H](CNc1cc(OC)cc2cccnc12)NC1CCCCC1 | 54.1 | 18.5 | 1000 | inhibition [5]: -6%
49 | O=[N+]([O-])c1ccc(Sc2ccc(F)cc2)c2nonc12 | 8.8 | 2 | 17 | IC50 [10]: 4.6 µM; CC50 at 24 h [4]: > 50 µM
50 | COC(=O)c1cc(F)c2nonc2c1Nc1ccc(I)cc1F | – | – | – | inhibition [18]: 3%
51 | Cc1ccc(NCSc2ccc(Cl)cc2)cc1 | – | – | – | inhibition [18]: -1%
52 | NNC(=O)CNc1cccc(Br)c1 | 1000 | – | – | inhibition [8]: 30.8%; IC50 [9]: 44.9 µM
53 | Cc1ccc2c(c1)c1ccc3c(c1n2C)C(=O)C=CC3=O | 46.7 | 21.4 | 1000 | inhibition [5]: -4%
54 | O=c1c(O)cccc2cc(O)c(O)c(O)c12 [PURPUROGALLIN] | 60 | 16.7 | 1000 | inhibition [5]: -4%
55 | Cc1cccc2c1c1ccc3c(c1n2C)C(=O)C=CC3=O | 35.6 | 28.1 | 1000 | inhibition [5]: -5%
56 | C=Cc1cc(OC)c2c(c1)c(=O)oc1c2cc(OC)c2c(O)ccc([C@@H]3O[C@H](C)[C@H](O)[C@@](C)(O)[C@H]3O)c21 | 22.6 | 10.2 | 230 | inhibition [5]: 8%
57 | O=C1C(c2ccccc2)=Nc2ccccc21 | – | – | – | inhibition [11]: 9%; IC50 [10]: 114 µM; CC50 at 24 h [4]: 220 µM
